Substitutions are numbered along the chain they refer to. Ends that are not written are not given here.

Data on one substance can be found in PMC3445454, “Broad and Cross-Clade CD4^+ T-Cell Responses Elicited by a DNA Vaccine Encoding Highly Conserved and Promiscuous HIV-1 M-Group Consensus Peptides” (PLoS ONE, 2012).

What all share (test): biochemical
Experiment [1] deals with HLA-DR DRB1*01:01 (Homo sapiens, UniProt P01903+P01911, A100R/D57E/F55L/F60I/F76Y/I96L/L162R/M171V/P40L/Q125E/R42F/V115G/Y59C). In kind it is binding.
Experiment [2] deals with HLA-DR DRB1*04:05 (Homo sapiens, UniProt P01903+P01911, A100R/A169T/D86S/F76Y/I96L/K127E/L162R/M171V/N62H/P40V/Q125Y/R42H/S133A/S149N/S66Y/V115G/V209L/W38E). In kind it is binding.
Experiment [3] has as its target HLA-DR DRB1*08:02 (Homo sapiens, UniProt P01903+P01911, A100R/A103L/A169T/F76Y/H45Y/I96F/K41T/L162R/M171V/P40S/Q125H/Q178H/Q39Y/Q99D/R218S/R42G/S66Y/V115G/W38E). The experiment is classed as binding.
Experiment [4] deals with HLA-DR DRB1*12:01 (Homo sapiens, UniProt P01903+P01911, A100R/A169T/D57E/D86V/F55L/H45Y/K41T/L162R/M171V/P40S/Q125H/Q178H/Q39Y/Q99D/R42G/S66L/T262R/V114A/V67L/W38E/Y59H/Y61H/Y89S). The experiment is classed as binding.
The target of experiment [5] is HLA-DR DRB1*13:02 (Homo sapiens, UniProt P01903+P01911, A100E/A169T/K41T/L162R/M171V/P40S/Q125H/Q178H/Q39Y/Q99D/R42S/S66N/T262R/V115G/W38E/Y61H). The experiment is classed as binding.
Experiment [6] concerns the target HLA-DR DRB1*15:01 (Homo sapiens, UniProt P01903+P01911). The experiment is classed as binding.
For experiment [7], the target named is HLA-DR DRB3*02:02 (Homo sapiens, UniProt P01903+P79483, A212P/D57E/F66Y/L67A/R103Q/R218S/R40L/S89Y/T80R/V86D/Y55F/Y59H). In kind it is binding. To be noted: read-out: Binding capacity/IC50 (nM) DRB3*02:02.
The target in experiment [8] is HLA-DR DRB4*01:01 (Homo sapiens, UniProt P01903+P13762, G164S). The experiment is classed as binding. The conditions noted are these: read-out: Binding capacity/IC50 (nM) DRB4*01:01.
Experiment [9] deals with T1, HLA-DP DPA1*01:03/DPB1*02:01 (Homo sapiens, UniProt P04440+P20036, A65V/A84D/A85E/K98E).
T1 sequence (P20036 29-260): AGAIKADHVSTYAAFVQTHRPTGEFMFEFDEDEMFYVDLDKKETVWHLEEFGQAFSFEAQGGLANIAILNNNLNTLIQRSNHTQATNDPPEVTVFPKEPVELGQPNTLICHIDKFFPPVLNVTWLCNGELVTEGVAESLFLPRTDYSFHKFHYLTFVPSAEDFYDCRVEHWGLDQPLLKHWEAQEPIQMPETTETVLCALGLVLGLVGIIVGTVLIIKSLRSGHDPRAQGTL
T1 sequence (P04440 30-258 A65V/A84D/A85E/K98E): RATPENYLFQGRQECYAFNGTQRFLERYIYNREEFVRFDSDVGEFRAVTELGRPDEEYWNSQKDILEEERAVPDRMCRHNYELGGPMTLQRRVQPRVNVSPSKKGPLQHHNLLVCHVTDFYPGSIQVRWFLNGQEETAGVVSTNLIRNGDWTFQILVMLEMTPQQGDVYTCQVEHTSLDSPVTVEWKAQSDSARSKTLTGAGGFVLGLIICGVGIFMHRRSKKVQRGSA
The experiment is classed as binding.

Experiment [10] has as its target T2, HLA-DP DPA1*01:03/DPB1*03:01 (Homo sapiens, UniProt P04440+P20036, A65V/A84D/A85E/E86D/F38Y/G113D/G114E/G40L/I94L/L37V/M105V/M116V/P115A/R125K/T199I).
T2 sequence (P20036 29-260): T1 sequence (P20036 29-260)
T2 sequence (P04440 30-258 L37V/F38Y/G40L/A65V/A84D/A85E/E86D/I94L/M105V/G113D/G114E/P115A/M116V/R125K/T199I): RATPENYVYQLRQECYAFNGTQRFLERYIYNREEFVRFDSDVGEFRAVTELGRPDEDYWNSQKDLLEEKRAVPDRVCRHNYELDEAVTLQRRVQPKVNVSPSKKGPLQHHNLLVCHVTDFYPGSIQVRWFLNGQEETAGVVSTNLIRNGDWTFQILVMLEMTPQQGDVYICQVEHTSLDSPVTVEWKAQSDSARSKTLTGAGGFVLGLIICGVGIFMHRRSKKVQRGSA
The experiment is classed as binding. The conditions noted are these: read-out: Binding capacity/IC50 (nM) DPA1*01:03 DPB1*03:01.

Experiment [11] addresses T3, HLA-DP DPA1*02:01/DPB1*14:01 (Homo sapiens, UniProt P04440+P20036, A65V/A84D/A85E/E86D/F191V/F38H/G113D/G114E/G40L/I94L/K142R/L158P/L37V/M105V/M116V/M62Q/P115A/Q81R/R125K/T114A/T199I/T259P).
T3 sequence (P20036 29-260 A42M/M62Q/Q81R/T114A/K142R/L158P/F191V/T259P): T1 sequence (P20036 29-260) with A14M, M34Q, Q53R, T86A, K114R, L130P, F163V, T231P
T3 sequence (P04440 30-258 L37V/F38H/G40L/A65V/A84D/A85E/E86D/I94L/M105V/G113D/G114E/P115A/M116V/R125K/T199I/R223Q): T2 sequence (P04440 30-258 L37V/F38Y/G40L/A65V/A84D/A85E/E86D/I94L/M105V/G113D/G114E/P115A/M116V/R125K/T199I) with Y9H, R194Q
In kind it is binding. To be noted: read-out: Binding capacity/IC50 (nM) DPA1*02:01 DPB1*14:01.

The target in experiment [12] is HLA-DP DPA1*03:01/DPB1*04:02 (Homo sapiens, UniProt P04440+P20036, A42M/A65V/A84D/A85E/L207M/L97S).
HLA-DP DPA1*03:01/DPB1*04:02, sequence (P04440 whole entry A65V/A84D/A85E/L207M): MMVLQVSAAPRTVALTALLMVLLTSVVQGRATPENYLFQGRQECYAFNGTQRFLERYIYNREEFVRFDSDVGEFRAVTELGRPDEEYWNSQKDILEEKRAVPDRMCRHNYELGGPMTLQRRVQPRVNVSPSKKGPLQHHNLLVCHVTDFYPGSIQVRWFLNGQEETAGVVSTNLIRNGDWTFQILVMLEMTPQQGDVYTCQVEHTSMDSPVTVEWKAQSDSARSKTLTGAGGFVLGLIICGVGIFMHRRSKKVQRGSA
HLA-DP DPA1*03:01/DPB1*04:02, sequence (P20036 whole entry A42M/L97S): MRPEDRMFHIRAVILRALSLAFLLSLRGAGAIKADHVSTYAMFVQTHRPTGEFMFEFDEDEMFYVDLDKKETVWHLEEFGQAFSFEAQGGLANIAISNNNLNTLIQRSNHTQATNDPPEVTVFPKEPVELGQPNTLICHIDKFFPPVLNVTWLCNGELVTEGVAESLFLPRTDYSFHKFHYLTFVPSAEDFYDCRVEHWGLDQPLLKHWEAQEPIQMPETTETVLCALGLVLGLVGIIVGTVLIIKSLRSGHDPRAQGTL

With “VVIQDNSDIKVVPRRKAKII-NH2 [integrase(249-268)]”, the IC50 came out at 110 nM in experiment [1]; 6080 nM in experiment [2]; 89 nM in experiment [3]; 2280 nM in experiment [4]; 5420 nM in experiment [5]; 139 nM in experiment [6]. The IC50 turned out to be 4530 nM in experiment [7]; 847 nM in experiment [8]; 7420 nM in [9]; 350 nM in experiment [10]; 3980 nM in [11]; 3670 nM in [12].
